Results: ChEMBL document CHEMBL1146928, “Semisynthesis of C-ring modified triptolide analogues and their cytotoxic activities” (Bioorg Med Chem Lett, 2006)
≈ marks a conversion by molar mass, not a printed value.

Key:
A549 = assay: Cytotoxicity against human A549 lung tumor cells; assay type: functional, cell-based
HT-29 = assay: Cytotoxicity against human HT29 colon tumor cells; assay type: functional, cell-based

Row | Compound | IC50 (A549) [µg/mL] | IC50 (HT-29) [µg/mL]
1 | CC(C)[C@]12O[C@H]1[C@@H]1O[C@]13[C@]1(O[C@H]1C[C@H]1C4=C(CC[C@@]13C)C(=O)OC4)[C@@H]2OC(=S)n1ccnc1 | 0.024 (≈ 0.051 µM) | 0.004 (≈ 0.0085 µM)
2 | CC(C)[C@]12O[C@H]1[C@@H]1O[C@@]13[C@@]1(C)CCC4=C(COC4=O)[C@@H]1C[C@@H]1O[C@@]13C2=O [TRIPTONIDE] |  | < 0.00046
3 | CC(C)[C@]12O[C@H]1[C@]13O[C@H]1C[C@H]1C4=C(CC[C@]1(C)[C@@]31O[C@H]1[C@H]2O)C(=O)OC4 | > 10 | > 10
4 | CC(C)[C@]12O[C@H]1[C@]13O[C@H]1C[C@H]1C4=C(CC[C@]1(C)[C@@]31O[C@H]1[C@@H]2O)C(=O)OC4 | 0.27 (≈ 0.749 µM) | 0.15 (≈ 0.416 µM)
5 | CC(C)C1=C[C@]23O[C@H]2C[C@H]2C4=C(CC[C@]2(C)[C@@]32O[C@H]2C1=O)C(=O)OC4 | 1.2 (≈ 3.5 µM) | 0.67 (≈ 1.96 µM)
6 | CC(C)[C@]12O[C@H]1[C@@H]1O[C@]13[C@]1(O[C@H]1C[C@H]1C4=C(CC[C@@]13C)C(=O)OC4)[C@H]2OC(=S)n1ccnc1 | 5 (≈ 10.6 µM) | 0.88 (≈ 1.87 µM)
7 | CC(C)[C@]12O[C@H]1[C@]13O[C@H]1C[C@H]1C4=C(CC[C@]1(C)[C@@]31O[C@H]1C2=O)C(=O)OC4 | 0.85 (≈ 2.37 µM) | 0.7 (≈ 1.95 µM)
